Where a name gives a salt, the structure may show the parent alone. Read-outs that look alike come from different tables or passages of the source.
What was measured:
Test in all cases: In vitro antibacterial activity, MIC by broth dilution in 96-well trays
Format in all cases: cell-based
C. diversus = conditions: Citrobacter koseri; C. diversus strain CDC 1663-72
Experimental: (§1) The in vitro antibacterial activity of the following compounds:
(§2) The diluted agents are dispensed in 100 µl amounts into the wells of a 96-well tray and used immediately or frozen at -10 to -70°C until needed. Using an automated inoculator, 1.5 µl of a 10^-2 dilution of an overnight culture is added to each well of the tray. The tops of the trays are then sealed using transparent tape and incubated overnight at 37°C. The trays are examined with the aid of a viewer. The lowest concentration at which no growth is observed is considered to be the minimum inhibitory concentration (MIC). [formula] [formula] [formula] [formula] [formula] [formula] [formula] [formula] [formula] [formula] [formula]

C. freundii = conditions: Citrobacter freundii
Experimental: as §1, §2

E. aerogenes = conditions: Klebsiella aerogenes
Experimental: as §1, §2

E. cloacae = conditions: Enterobacter cloacae
Experimental: as §1, §2

E. coli = conditions: Escherichia coli
Experimental: as §1, §2

K. pneumoniae = conditions: Klebsiella pneumoniae
Experimental: as §1, §2

P. mirabilis = conditions: Proteus mirabilis
Experimental: as §1, §2

P. rettgeri = conditions: Providencia rettgeri, ATCC9250; P. rettgeri strain ATCC 9250
Experimental: as §1, §2

P. vulgaris = conditions: Proteus vulgaris
Experimental: as §1, §2

S. marcescens = tested on: S. marcescens
Experimental: as §1, §2

S. schottmuelleri = tested on: S. schottmuelleri
Experimental: as §1, §2

S. typhi P58A = conditions: Salmonella enterica
Experimental: as §1, §2

P.aeruginosa = conditions: Pseudomonas aeruginosa
Experimental: as §1, §2

S. aureus = conditions: Staphylococcus aureus
Experimental: as §1, §2

S. faecalis = conditions: Enterococcus faecalis; S. faecalis C1
Experimental: as §1, §2

S. pneumoniae = conditions: Streptococcus pneumoniae
Experimental: as §1, §2

S. pyogenes = conditions: Streptococcus pyogenes
Experimental: as §1, §2

Measured: MIC

CC1(C)S[C@@H]2[C@H](/N=C/N3CCCCCC3)C(=O)N2[C@H]1C(=O)O [Amdinocillin]
> 128 µg/mL: K. pneumoniae; K. pneumoniae strain HE7, read-out: MIC
4 µg/mL: E. aerogenes; E. aerogenes strain 503-478, read-out: MIC
16 µg/mL: E. cloacae; E. cloacae strain 6951
64 µg/mL: K. pneumoniae; K. pneumoniae strain 4964, read-out: MIC | P. mirabilis; P. mirabilis strain 620A, read-out: MIC | P. vulgaris; P. vulgaris strain 101
0.5 µg/mL: P. vulgaris; P. vulgaris strain 100 | S. marcescens; Serratia marcescens, S. marcescens strain S714, read-out: MIC
128 µg/mL: E. aerogenes | K. pneumoniae; K. pneumoniae strain 5096
2 µg/mL: E. coli; E. coli strain 503-455 | P. mirabilis; P. mirabilis strain 503-1136, read-out: MIC
8 µg/mL: E. aerogenes; E. aerogenes strain 83, read-out: MIC | E. coli; E. coli strain 5152
0.25 µg/mL: E. cloacae; E. cloacae strain 5699 | E. cloacae; E. cloacae strain 9295 | K. pneumoniae; K. pneumoniae strain 8357, read-out: MIC | P. mirabilis; P. mirabilis strain 2, read-out: MIC | P. mirabilis; P. mirabilis strain 90, read-out: MIC | S. marcescens; Serratia marcescens, S. marcescens strain S1, read-out: MIC | S. marcescens; Serratia marcescens, S. marcescens strain S2, read-out: MIC
0.031 µg/mL: E. coli; E. coli strain 387-1 | K. pneumoniae; K. pneumoniae strain A, read-out: MIC | P. vulgaris; ATCC6380, P. vulgaris strain ATCC 6380
0.062 µg/mL: C. diversus | C. freundii; C. freundii strain 8ASM, read-out: MIC | E. cloacae; E. cloacae strain P99 | E. coli; E. coli strain 4 | E. coli; E. coli strain 48 | K. pneumoniae; K. pneumoniae strain 503-994, read-out: MIC | S. schottmuelleri | S. typhi P58A
0.125 µg/mL: C. freundii; C. freundii strain CDC6 | E. cloacae; E. cloacae strain 24 | E. cloacae; E. cloacae strain 214 | E. cloacae; E. cloacae strain 9570A | E. coli; E. coli strain 257 | E. coli; E. coli strain R-563 | K. pneumoniae; K. pneumoniae strain 35 | K. pneumoniae; K. pneumoniae strain 503-964 | P. mirabilis | P. rettgeri | S. marcescens; S. marcescens strain S3 | S. marcescens; S. marcescens strain S147 | S. marcescens; Serratia marcescens
1 µg/mL: S. marcescens; Serratia marcescens, S. marcescens strain 5805, read-out: MIC | S. marcescens; Serratia marcescens, S. marcescens strain S4, read-out: MIC | S. marcescens; Serratia marcescens, S. marcescens strain S5, read-out: MIC

CC1(C)S[C@@H]2[C@H](N=CN3CCC(CC4=NCCCN4)CC3)C(=O)N2[C@H]1C(=O)O [Compound U, [2S-(2alpha,5alpha,6beta)]-6-[[[4-[(1,4,5,6-tetrahydro-2-pyrimidinyl)methyl]-1-piperidinyl]-methylene]amino]-3,3-dimethyl-7-oxo-4-thia-1-azabicyclo[3.2.0]heptane-2-carboxylic acid hydrochloride]
64 µg/mL: P.aeruginosa; P.aeruginosa strain 503-56
> 128 µg/mL: P.aeruginosa; P.aeruginosa strain 503-820 | P.aeruginosa; P.aeruginosa strain 5712 | P.aeruginosa; P.aeruginosa strain 8710 | P.aeruginosa; P.aeruginosa strain 8780 | P.aeruginosa; P.aeruginosa strain POW 151 | P.aeruginosa; P.aeruginosa strain Stone 130 | S. aureus; S. aureus strain 1059B | S. pyogenes; S. pyogenes strain 503-782
4 µg/mL: S. pneumoniae; S. pneumoniae strain 6302 | S. pneumoniae; S. pneumoniae strain SC | S. pyogenes; S. pyogenes strain 4
0.5 µg/mL: P.aeruginosa; P.aeruginosa strain 5700
128 µg/mL: P.aeruginosa; P.aeruginosa strain 6148B | S. faecalis
8 µg/mL: S. aureus; S. aureus strain Giorgio | S. aureus; S. aureus strain Smith
9.5 µg/mL: P.aeruginosa; P.aeruginosa strain B
2 µg/mL: S. pneumoniae; S. pneumoniae strain 6301

CC1(C)S[C@@H]2[C@H](N=CN3CCCC(c4ncc[nH]4)C3)C(=O)N2[C@H]1C(=O)O (stereo partly drawn) [P, [2S-(2alpha,5alpha,6beta)]-6-[[[3-(1H-imidazol-2-yl)-1-piperidinyl]methylene]amino]-3,3-dimethyl-7-oxo-4-thia-1-azabicyclo[3.2.0]heptane-2-car-boxylic acid hydrochloride]
4 µg/mL: S. aureus; S. aureus strain Giorgio
8 µg/mL: P.aeruginosa; P.aeruginosa strain 5700 | P.aeruginosa; P.aeruginosa strain B
> 128 µg/mL: P.aeruginosa; P.aeruginosa strain 503-56 | P.aeruginosa; P.aeruginosa strain 503-820 | P.aeruginosa; P.aeruginosa strain 5712 | P.aeruginosa; P.aeruginosa strain 6148B | P.aeruginosa; P.aeruginosa strain 8710 | P.aeruginosa; P.aeruginosa strain 8780 | P.aeruginosa; P.aeruginosa strain POW 151 | P.aeruginosa; P.aeruginosa strain Stone 130
0.5 µg/mL: S. pyogenes; S. pyogenes strain 4
64 µg/mL: S. aureus; S. aureus strain 1059B | S. faecalis | S. pyogenes; S. pyogenes strain 503-782
1 µg/mL: S. pneumoniae; S. pneumoniae strain 6301 | S. pneumoniae; S. pneumoniae strain 6302 | S. pneumoniae; S. pneumoniae strain SC
2 µg/mL: S. aureus; S. aureus strain Smith

Source: patent EP0148283A1, “Novel penicillanic acid derivatives” (F. HOFFMANN-LA ROCHE & CO. Aktiengesellschaft, priority 1983, dated 1985)
